# pIC50: −log10 of the molar value.
# Target: DGKα (Homo sapiens (Human), UniProt P23743)
# Assay: Assay 2: In Vitro DGK Inhibition Assays, Method B (DGKα ADPGLO)
# Type: biochemical
# Conditions: 150 μM ATP
# Method: Assay 2: In Vitro DGK Inhibition Assays—Method B
# The DGKα and DGKζ reactions were performed using either extruded liposome (DGKα and DGKζ LIPGLO assays) or detergent/lipid micelle substrate (DGKα and DGKζ assays). The reactions were carried out in 50 mM MOPS pH 7.5, 100 mM NaCl, 10 mM MgCl2, 1 μM CaCl2), and 1 mM DTT (assay buffer). The reactions using a detergent/lipid micelle substrate also contained 50 mM octyl B-D-glucopyranoside. The lipid substrate concentrations were 11 mM PS and 1 mM DAG for the detergent/lipid micelle reactions. The lipid substrate concentrations were 2 mM PS, 0.25 mM DAG, and 2.75 mM PC for the extruded liposome reactions (5 mM total lipid). The reactions were carried out in 150 μM ATP. The enzyme concentrations for the DGKα and DGKζ were nM.
# The compound inhibition studies were carried out as follows: 25 nL droplets of each test compound (top concentration 10 mM with 11 point, 3-fold dilution series for each compound) solubilized in DMSO were transferred to wells of a white 1536 well plate (Corning 3725). A 5 mL enzyme/lipid substrate solution at 2× final reaction concentration was prepared by combining 2.5 mL 4× enzyme solution (20 nM DGKα or DGKζ (prepared as described below) in assay buffer) and 2.5 mL of either 4× liposome or 4× detergent/lipid micelle solution (compositions described below) and incubated at room temperature for 10 minutes. Next, 1 μL 2× enzyme/lipid substrate solution was added to wells containing the test compound and reactions were initiated with the addition of 1 μL 300 uM ATP. The reactions were allowed to proceed for 2 hr, after which 2 μL Glo Reagent (Promega V9101) was added and incubated for 40 minutes. Next, 4 μL Kinase Detection Reagent was added and incubated for 30 minutes. Luminescence was recorded using an EnVision microplate reader. […] The compounds were evaluated at 11 concentrations to determine IC50.
# The detergent/lipid micelle was prepared by combining 15 g phosphatidylserine (Avanti 840035P) and 1 g diacylglycerol (8008110) and dissolving into 150 mL chloroform in a 2 L round bottom flask. Chloroform was removed under high vacuum by rotary evaporation. The resulting colorless, tacky oil was resuspended in 400 mL 50 mM MOPS pH 7.5, 100 mM NaCl, 20 mM NaF, 10 mM MgCl2, 1 μM CaCl2), 1 mM DTT, and 200 mM octyl glucoside by vigorous mixing. The lipid/detergent solution was split into 5 mL aliquots and stored at −80° C.
# The lipid composition was 5 mol % DAG (Avanti 8008110), 40 mol % PS (Avanti 840035P), and 55 mol % PC (Avanti 850457) at a total lipid concentration of […] for the liposome solution. The PC, DAG, and PS were dissolved in chloroform, combined, and dried in vacuo to a thin film. The lipids were hydrated to 20 mM in 50 mM MOPS pH 7.5, 100 mM NaCl, 5 mM MgCl2, and were freeze-thawed five times. The lipid suspension was extruded through a 100 nm polycarbonate filter 10-12 times. Dynamic light scattering was carried out to confirm liposome size (50-60 nm radius). The liposome preparation was stored at 4° C. for as long as four weeks.
# Human MA-hDGKα-(S9-S727)-Ct-TVMV-His-pFBgate and full length human DGK-ζ-transcript variant-2-TVMV-His-pFBgate baculovirus samples were generated using the Bac-to-Bac baculovirus expression system (Invitrogen) according to the manufacturer's protocol (note: MA- in name of DGKα reagents indicates two extra amino acids added prior to Ser-9). The DNA used for expression of the DGK-α(9-727) and DGK-C have SEQ ID NOs: 5 and 3, respectively. […]
# Sequence of DGKα (P23743 other isoform, or with tags, fused parts or gaps): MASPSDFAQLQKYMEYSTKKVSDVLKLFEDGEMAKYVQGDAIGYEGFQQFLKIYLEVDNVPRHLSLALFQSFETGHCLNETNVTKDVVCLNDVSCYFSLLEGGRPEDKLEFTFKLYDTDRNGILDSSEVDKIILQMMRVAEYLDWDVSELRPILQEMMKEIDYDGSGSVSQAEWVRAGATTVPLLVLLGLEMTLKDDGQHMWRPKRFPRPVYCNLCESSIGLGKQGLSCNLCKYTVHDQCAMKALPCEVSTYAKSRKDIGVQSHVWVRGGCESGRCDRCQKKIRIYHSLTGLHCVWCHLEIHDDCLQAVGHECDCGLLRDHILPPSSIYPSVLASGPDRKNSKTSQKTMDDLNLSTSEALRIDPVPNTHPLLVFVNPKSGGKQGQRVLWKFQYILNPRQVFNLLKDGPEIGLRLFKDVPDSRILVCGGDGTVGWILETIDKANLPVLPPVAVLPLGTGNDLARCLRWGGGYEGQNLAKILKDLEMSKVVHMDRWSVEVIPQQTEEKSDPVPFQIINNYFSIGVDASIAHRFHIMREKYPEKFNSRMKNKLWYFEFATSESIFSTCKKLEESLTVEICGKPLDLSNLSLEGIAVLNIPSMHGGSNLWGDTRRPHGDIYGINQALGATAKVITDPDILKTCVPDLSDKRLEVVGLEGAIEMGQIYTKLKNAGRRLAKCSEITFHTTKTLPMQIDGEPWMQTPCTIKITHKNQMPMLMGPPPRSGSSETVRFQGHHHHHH
row,pIC50,Compound
1,5.71,"CC[C@H]1CN(C(C(=O)N2CCOCC2)c2ccc(C(F)(F)F)cc2)[C@H](CC)CN1c1nc(=O)n(C)c2ccc(C#N)nc12 (single isomer, unassigned) [Example 53]"
2,5.12,"CC[C@H]1CN(C(C(=O)NCCOC)c2ccc(C(F)(F)F)cc2)[C@H](CC)CN1c1nc(=O)n(C)c2ccc(C#N)nc12 (single isomer, unassigned) [Example 56]"
3,6.59,"CC[C@H]1CN(C(C(=O)N2CCOCC2)c2ccc(C(F)(F)F)cc2)[C@H](CC)CN1c1nc(=O)n(C)c2ccc(C#N)nc12 (single isomer, unassigned) [Example 54]"

# Reference: patent publication US12454531B2, “Substituted piperazine derivatives useful as T cell activators” (BRISTOL-MYERS SQUIBB COMPANY, priority 2019, dated 2025)
